A short description of data set [1]: Anti inflammatory activity (test not specified).
In the next data set the test system is female BALB/c mice. The data set is described as follows: Absence of gastrointestinal toxicity, gavage for 10 days. It is filed as in vivo. Conditions: 20 mg/kg daily by gavage for 10 days. The method, then:
Compound 2 at 5 mg/kg (n=3) or vehicle (PEG 400:PBS1:1; n=2) was administered via gavage to female BALB/c mice for 10 days. […] Histology of cecum and colon were normal.
The diastereoisomeric mixture of Compounds 3a and 3b in PEG 400:PBS1:1 was administered to 7 week old female BALB/c mice (n=8) by gavage at 20 mg/kg daily for 10 days. There was no vehicle control group for comparison.
Compound 4 at 5 mg/kg (n=3) or vehicle (n=2, PEG:PBS 1:1) was administered via gavage to female BALB/c mice for 10 days. […] Histology of cecum and colon were normal.

For the next data set, the target named is T1, TX synthase (TXS) (Homo sapiens, UniProt P24557).
T1 construct: endogenous in cells; host or cells: undifferentiated U937 cells
T1 sequence (P24557 1-533): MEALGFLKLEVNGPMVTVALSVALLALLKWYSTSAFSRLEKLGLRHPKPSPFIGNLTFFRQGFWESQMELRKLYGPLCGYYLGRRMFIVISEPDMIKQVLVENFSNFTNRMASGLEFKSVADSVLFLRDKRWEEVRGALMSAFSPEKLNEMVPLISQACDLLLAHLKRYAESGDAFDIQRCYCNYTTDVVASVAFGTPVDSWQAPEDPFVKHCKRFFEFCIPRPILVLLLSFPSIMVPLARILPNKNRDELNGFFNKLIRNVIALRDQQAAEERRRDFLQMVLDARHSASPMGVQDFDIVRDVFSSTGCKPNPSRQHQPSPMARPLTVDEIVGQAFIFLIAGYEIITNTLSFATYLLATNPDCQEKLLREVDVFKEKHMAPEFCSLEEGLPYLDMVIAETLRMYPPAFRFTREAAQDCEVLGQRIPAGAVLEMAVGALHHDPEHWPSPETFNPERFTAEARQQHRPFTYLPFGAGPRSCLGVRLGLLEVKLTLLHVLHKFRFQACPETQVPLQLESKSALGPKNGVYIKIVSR
In words: TXB2 synthesis following addition of exogenous PGH2 to U937 cells. It is filed as cell-based. As to conditions: 1, 10, 100 μM, undifferentiated U937 cells, PGH2 5 μM. As to the method: To examine effects of test compounds directly on TX synthase (TXS), a different assay system was used. Whereas arachidonic acid (AA) is the substrate for COX, PGH2 is the substrate for TX synthase. To examine directly the effect of these compounds on TXS, exogenous ? elow:
Test compounds at 0 μM, 1 μM, 10 μM and 100 μM (in DMSO) were incubated with undifferentiated U937 cells (6×10^6/ml) for 30 min at 37° C., after which PGH2 (5 μM) was added. After incubation for 10 min, the reaction was terminated by centrifugation and the supernatants were collected and TXB2 production was measured in triplicate by RIA. ANOVA followed by Newman-Keuls multiple comparisons test was used to examine differences between doses and the control values. A statistical significance level of 0.05 was used and differences from control values are indicated by an asterisk (*).

For data set [2], the system named is contractile response of the aortic ring to noradrenaline. The data set is described as follows: Vasodilatory activity in the rat aortic ring assay. Details: species or system rat (Sprague-Dawley). Conditions: test compound 1 μg/ml. The method, then: The vasodilatory capacity of test compounds was examined ex vivo using the rat aortic ring assay.
Male Sprague-Dawley rats (250±50 g) were euthanized with 80% CO2 and 20% O2. The thoracic aorta was excised and quickly mounted in organ-baths as described (Chin-Dusting et al. 2001). Full concentration-contractile curves were obtained to noradrenaline ([…]) with and without test compounds delivered at a concentration of 1 μg/ml. Experiments were repeated in n=5 different rings from 5 different animals. Only one compound at any one concentration was tested on any one ring from any one animal. Sigmoidal dose response curves were fitted for the data and the logEC50 calculated (Prism 4, GraphPad Software). The difference in these values between the presence and absence of test compound was calculated using a two-tailed paired t test. The effects of β-oestrodiol and vehicle alone were examined as a positive and negative control respectively.

In a further data set the test system is NFκB promoter activity. In words: Inhibition of NFκB promoter activity (β-lactamase reporter) in TNFα-stimulated THP-1 cells. It is filed as cell-based, human. As to conditions: 5 h. The method, then: Human macrophage THP-1 cells, modified to include the β-lactamase reporter gene, were seeded into wells of a 96-well plate (50×10^3 cells/well) in the presence of RPMI 1640 medium (70 μl). TNFα (7.5 ng/ml) and human sera (final concentration of 20%) were added to each well. Plates were incubated for 5 h at 37° C. to allow for NFkB-stimulated β-lactamase production. LiveBLAzer™ FRET B/G Substrate (CCF4-AM) was then added to assay for β-lactamase activity. Once CCFA-AM enters a cell, it is converted to negatively charged CCF4 by endogenous esterases. Excitation of this substrate at 409 nm leads to efficient FRET between the coumarin and fluorescein moieties, resulting in a green fluorescence detectable at 530 nm. The presence of β-lactamase leads to cleavage of CCF4 and results in a loss of FRET, resulting in a robust blue fluorescent signal detectable at 460 nm. Thus, activity of beta-lactamase (a marker of NFkB-promoter activity) is measured as a product to substrate ratio (blue/green fluorescence ratio: 460 nm/530 nm).

The text below walks through data of US20090131513A1, “ANTI-INFLAMMATORY MODALITIES” (Novogen Research Pty Ltd., priority 2005, published 2009).

As to `Oc1ccc(C23COc4cc(O)ccc4C2O3)cc1` (stereo not drawn) [3,4-epoxy-4′,7-dihydroxyisoflavan], the anti inflammatory activity entry in data set [1] is recorded as “shows anti inflammatory activity”.

As to `Cc1c(O)ccc2c1OCC(c1ccc(O)cc1)C2O` (stereo not drawn) [Compound 3], the “mean increase in body weight over the 10 days, of the starting weight” value with female BALB/c mice was determined as 5%. In addition, in the data set on female BALB/c mice (no vehicle group), the “body weight, in words” value is on record as “all mice maintained body weight”. Further, the “thromboxane synthase inhibition (TXB2 synthesis after exogenous PGH2), selectivity in words” value at TX synthase (TXS) is “less specific”. Also, in data set [2], the “contractile response (logEC50) of the aortic ring to noradrenaline compared with vehicle” value is “significantly inhibited”. Also, in the data set with NFκB promoter activity, the “inhibition of NFκB compared to vehicle control” value is “significantly (p<0.001) inhibited”.
